Experimental data published in patent publication US20200222474A1, “COMPOSITIONS AND METHODS FOR INCREASING PHYTOCHEMICAL BIOAVAILABLITY AND BIOACTIVITY” (North Carolina State University, priority 2017, published 2020).

Tested on: L. acidophilus NCFM
Assay: RNA-seq transcriptional analysis of L. acidophilus NCFM growing on plant glycosides
Type: cell-based, Lactobacillus acidophilus
[1] = gene LBA0282 (Hypothetical protein)
[2] = gene LBA0327 (Replication protein)
[3] = gene LBA0328 (Hypothetical protein)
[4] = gene LBA0330 (Hypothetical protein)
[5] = gene LBA0457 (Hypothetical protein)
[6] = gene LBA0485 (Hypothetical protein)
[7] = gene LBA0486 (Hypothetical protein)
[8] = gene LBA0487 (Hypothetical protein.)
[9] = gene LBA0492 (Hypothetical protein)
[10] = gene LBA0541 (Cadmium-transporting ATPase)
[11] = gene LBA0542 (Putative heavy-metal-transporting alpase)
[12] = gene LBA0543 (Hypothetical protein)
[13] = gene LBA0544 (Transcriptional regulator)
[14] = gene LBA0555 (Myosin-crossreactive antigen)
[15] = gene LBA0564 (HAD family hydrolase)
[16] = gene LBA0574 (ABC multi drug exporter)
[17] = gene LBA0575 (ABC multi drug exporter)
[18] = gene LBA0604 (Immunity protein)
[19] = gene LBA0605 (Putative hydrolase)
[20] = gene LBA0608 (Hypothetical protein)
[21] = gene LBA0631 (Hypothetical protein)
[22] = gene LBA0649 (Myosin-crossreactive antigen)
[23] = gene LBA0728 (Hypothetical protein LBA0728)
[24] = gene LBA1025 (Aldo/keto reductase family oxidoreductase)
[25] = gene LBA1026 (Aldo/keto reduetase family oxidoreductase)
[26] = gene LBA1206 (Hypothetical protein)
[27] = gene LBA1401 (Peroxidase (Npx))
[28] = gene LBA1435 (Hypothetical protein)
[29] = gene LBA1455 (Putative surface layer protein)
[30] = gene LBA1469 (UDP-glucose 4-epimerase)
[31] = gene LBA1656 (Hypothetical protein)
[32] = gene LBA1675 (Hypothetical protein)
[33] = gene LBA1676 (ATP-dependent helicase)
[34] = gene LBA1683 (Putative magnesium-transporting atpase)
[35] = gene LBA1704 (N-Acetylmuramic acid-6-phosphate etherase)
[36] = gene LBA1740 (Hypothetical protein)
[37] = gene LBA1752 (Hypothetical protein)
[38] = gene LBA1769 (Hypothetical protein)
[39] = gene LBA1793 (Hypothetical protein)
[40] = gene LBA1869 (Beta-phosphoglueomutase)
[41] = gene LBA1895 (Hypothetical protein)
[42] = nTPM on plant glycoside relative to glucose, mid-exponential phase

SMILES: O=c1ccc2cc(O[C@@H]3O[C@H](CO)[C@@H](O)[C@H](O)[C@H]3O)c(O)cc2o1 [Esculin]
- Log2 differential normalized TPM ratio compared to glucose [1]: 2.1
- Log2 differential normalized TPM ratio compared to lactose [1]: 1.4
- Transcripts per million (rpm) [1]: 92.4 rpm
- Log2 differential normalized TPM ratio compared to glucose [2]: 2.4
- Log2 differential normalized TPM ratio compared to lactose [2]: 2.1
- Transcripts per million (rpm) [2]: 43.4 rpm
- Log2 differential normalized TPM ratio compared to glucose [3]: 1.9
- Log2 differential normalized TPM ratio compared to lactose [3]: 2
- Transcripts per million (rpm) [3]: 55.9 rpm
- Log2 differential normalized TPM ratio compared to glucose [4]: 3.3
- Log2 differential normalized TPM ratio compared to lactose [4]: 2.9
- Transcripts per million (rpm) [4]: 211.2 rpm
- Log2 differential normalized TPM ratio compared to glucose [5]: 2.1
- Log2 differential normalized TPM ratio compared to lactose [5]: 1.1
- Transcripts per million (rpm) [5]: 2243.1 rpm
- Log2 differential normalized TPM ratio compared to glucose [6]: 2
- Log2 differential normalized TPM ratio compared to lactose [6]: −0.4
- Transcripts per million (rpm) [6]: 868.4 rpm
- Log2 differential normalized TPM ratio compared to glucose [7]: 2.3
- Log2 differential normalized TPM ratio compared to lactose [7]: −0.5
- Transcripts per million (rpm) [7]: 1210.2 rpm
- Log2 differential normalized TPM ratio compared to glucose [8]: 1
- Log2 differential normalized TPM ratio compared to lactose [8]: −0.3
- Transcripts per million (rpm) [8]: 69.1 rpm
- Log2 differential normalized TPM ratio compared to glucose [9]: 3.7
- Log2 differential normalized TPM ratio compared to lactose [9]: 1.2
- Transcripts per million (rpm) [9]: 108.4 rpm
- Log2 differential normalized TPM ratio compared to glucose [10]: 1.9
- Log2 differential normalized TPM ratio compared to lactose [10]: −0.3
- Transcripts per million (rpm) [10]: 138.8 rpm
- Log2 differential normalized TPM ratio compared to glucose [11]: 1.9
- Log2 differential normalized TPM ratio compared to lactose [11]: −0.3
- Transcripts per million (rpm) [11]: 337.4 rpm
- Log2 differential normalized TPM ratio compared to glucose [12]: 2
- Log2 differential normalized TPM ratio compared to lactose [12]: −0.4
- Transcripts per million (rpm) [12]: 278.7 rpm
- Log2 differential normalized TPM ratio compared to glucose [13]: 1.6
- Log2 differential normalized TPM ratio compared to lactose [13]: −0.3
- Transcripts per million (rpm) [13]: 342.2 rpm
- Log2 differential normalized TPM ratio compared to glucose [14]: 2
- Log2 differential normalized TPM ratio compared to lactose [14]: 0.1
- Transcripts per million (rpm) [14]: 186.9 rpm
- Log2 differential normalized TPM ratio compared to glucose [15]: 1.4
- Log2 differential normalized TPM ratio compared to lactose [15]: 0.9
- Transcripts per million (rpm) [15]: 2.8 rpm
- Log2 differential normalized TPM ratio compared to glucose [16]: 2.4
- Log2 differential normalized TPM ratio compared to lactose [16]: 2.1
- Transcripts per million (rpm) [16]: 490.6 rpm
- Log2 differential normalized TPM ratio compared to glucose [17]: 2.2
- Log2 differential normalized TPM ratio compared to lactose [17]: 2
- Transcripts per million (rpm) [17]: 381 rpm
- Log2 differential normalized TPM ratio compared to glucose [18]: −0.3
- Log2 differential normalized TPM ratio compared to lactose [18]: −0.8
- Transcripts per million (rpm) [18]: 12.5 rpm
- Log2 differential normalized TPM ratio compared to glucose [19]: 2.4
- Log2 differential normalized TPM ratio compared to lactose [19]: 1.4
- Transcripts per million (rpm) [19]: 15.5 rpm
- Log2 differential normalized TPM ratio compared to glucose [20]: 2.3
- Log2 differential normalized TPM ratio compared to lactose [20]: 1.2
- Transcripts per million (rpm) [20]: 183.9 rpm
- Log2 differential normalized TPM ratio compared to glucose [21]: 2.9
- Log2 differential normalized TPM ratio compared to lactose [21]: −0.2
- Transcripts per million (rpm) [21]: 9527.2 rpm
- Log2 differential normalized TPM ratio compared to glucose [22]: 1.9
- Log2 differential normalized TPM ratio compared to lactose [22]: 1.2
- Transcripts per million (rpm) [22]: 154.8 rpm
- Log2 differential normalized TPM ratio compared to glucose [23]: 4.8
- Log2 differential normalized TPM ratio compared to lactose [23]: 3
- Transcripts per million (rpm) [23]: 70.6 rpm
- Log2 differential normalized TPM ratio compared to glucose (gene LBA0861 (Polyferredoxin)): 2
- Log2 differential normalized TPM ratio compared to lactose (gene LBA0861 (Polyferredoxin)): 1.5
- Transcripts per million (rpm) (gene LBA0861 (Polyferredoxin)): 785.8 rpm
- Log2 differential normalized TPM ratio compared to glucose (gene LBA1023 (Oxidoreductase)): 2.3
- Log2 differential normalized TPM ratio compared to lactose (gene LBA1023 (Oxidoreductase)): 2
- Transcripts per million (rpm) (gene LBA1023 (Oxidoreductase)): 911.4 rpm
- Log2 differential normalized TPM ratio compared to glucose [24]: 2.7
- Log2 differential normalized TPM ratio compared to lactose [24]: 2.7
- Transcripts per million (rpm) [24]: 210.8 rpm
- Log2 differential normalized TPM ratio compared to glucose [25]: 2.3
- Log2 differential normalized TPM ratio compared to lactose [25]: 1.9
- Transcripts per million (rpm) [25]: 162.5 rpm
- Log2 differential normalized TPM ratio compared to glucose (gene LBA1027 (Oxidoreductase)): 2.1
- Log2 differential normalized TPM ratio compared to lactose (gene LBA1027 (Oxidoreductase)): 0.6
- Transcripts per million (rpm) (gene LBA1027 (Oxidoreductase)): 2680.9 rpm
- Log2 differential normalized TPM ratio compared to glucose [26]: 2.2
- Log2 differential normalized TPM ratio compared to lactose [26]: 1
- Transcripts per million (rpm) [26]: 636.7 rpm
- Log2 differential normalized TPM ratio compared to glucose [27]: 3.1
- Log2 differential normalized TPM ratio compared to lactose [27]: 1
- Transcripts per million (rpm) [27]: 609.8 rpm
- Log2 differential normalized TPM ratio compared to glucose [28]: 5
- Log2 differential normalized TPM ratio compared to lactose [28]: 1.3
- Transcripts per million (rpm) [28]: 142.3 rpm
- Log2 differential normalized TPM ratio compared to glucose [29]: 0.7
- Log2 differential normalized TPM ratio compared to lactose [29]: −0.9
- Transcripts per million (rpm) [29]: 28.7 rpm
- Log2 differential normalized TPM ratio compared to glucose [30]: 2.1
- Log2 differential normalized TPM ratio compared to lactose [30]: −2.9
- Transcripts per million (rpm) [30]: 385 rpm
- Log2 differential normalized TPM ratio compared to glucose [31]: 1.2
- Log2 differential normalized TPM ratio compared to lactose [31]: 0.6
- Transcripts per million (rpm) [31]: 48.5 rpm
- Log2 differential normalized TPM ratio compared to glucose [32]: 2.2
- Log2 differential normalized TPM ratio compared to lactose [32]: 0.8
- Transcripts per million (rpm) [32]: 1975.8 rpm
- Log2 differential normalized TPM ratio compared to glucose [33]: 2
- Log2 differential normalized TPM ratio compared to lactose [33]: 0.8
- Transcripts per million (rpm) [33]: 1361.3 rpm
- Log2 differential normalized TPM ratio compared to glucose [34]: 0.3
- Log2 differential normalized TPM ratio compared to lactose [34]: 0.5
- Transcripts per million (rpm) [34]: 20.5 rpm
- Log2 differential normalized TPM ratio compared to glucose [35]: 1.6
- Log2 differential normalized TPM ratio compared to lactose [35]: 0.9
- Transcripts per million (rpm) [35]: 21.2 rpm
- Log2 differential normalized TPM ratio compared to glucose [36]: 2.4
- Log2 differential normalized TPM ratio compared to lactose [36]: 1.6
- Transcripts per million (rpm) [36]: 95.9 rpm
- Log2 differential normalized TPM ratio compared to glucose [37]: 2.3
- Log2 differential normalized TPM ratio compared to lactose [37]: 1.4
- Transcripts per million (rpm) [37]: 42.9 rpm
- Log2 differential normalized TPM ratio compared to glucose [38]: 1.9
- Log2 differential normalized TPM ratio compared to lactose [38]: 0
- Transcripts per million (rpm) [38]: 6023.9 rpm
- Log2 differential normalized TPM ratio compared to glucose [39]: 0.7
- Log2 differential normalized TPM ratio compared to lactose [39]: −2.1
- Transcripts per million (rpm) [39]: 28.5 rpm
- Log2 differential normalized TPM ratio compared to glucose (gene LBA1796 (ABC exporter)): 1.9
- Log2 differential normalized TPM ratio compared to lactose (gene LBA1796 (ABC exporter)): −0.6
- Transcripts per million (rpm) (gene LBA1796 (ABC exporter)): 35.2 rpm
- Log2 differential normalized TPM ratio compared to glucose [40]: 4.2
- Log2 differential normalized TPM ratio compared to lactose [40]: 1.8
- Transcripts per million (rpm) [40]: 156.4 rpm
- Log2 differential normalized TPM ratio compared to glucose [41]: 1.4
- Log2 differential normalized TPM ratio compared to lactose [41]: 1.2
- Transcripts per million (rpm) [41]: 74.5 rpm
- Log2 Ratio vs Glc, LBA0225 Phospho-β-glucosidase (GH1) [42]: −0.2
- Log2 Ratio vs Glc, LBA0227 PTS EIIC [42]: 0.8
- Log2 Ratio vs Glc, LBA0228 Transcriptional regulator [42]: 0.9
- Log2 Ratio vs Glc, LBA0466 Phosphoenolpyruvate carboxykinase (ATP) [42]: 2
- Log2 Ratio vs Glc, LBA0491 PTS EIIC [42]: 3.4
- Log2 Ratio vs Glc, LBA0492 Hypothetical protein [42]: 3.7
- Log2 Ratio vs Glc, LBA0555 Myosin-cross-reactive antigen/Fatty acid hydratase [42]: 2
- Log2 Ratio vs Glc, LBA0606 PTS EIIBC [42]: 2.8
- Log2 Ratio vs Glc, LBA0631 Hypothetical protein [42]: 2.9
- Log2 Ratio vs Glc, LBA0724 Transcriptional regulator (antiterminator) [42]: 5.5
- Log2 Ratio vs Glc, LBA0725 PTS EIICBA [42]: 9.8
- Log2 Ratio vs Glc, LBA0726 Phospho-β-glucosidase (GH1) [42]: 6.9
- Log2 Ratio vs Glc, LBA0728 Hypothetical protein [42]: 4.8
- Log2 Ratio vs Glc, LBA0876 PTS EIIC [42]: 2.9
- Log2 Ratio vs Glc, LBA0877 PTS EIIA [42]: 3
- Log2 Ratio vs Glc, LBA1401 Peroxidase (Npx) [42]: 3.1
- Log2 Ratio vs Glc, LBA1411 Fumarate reductase flavoprotein subunit [42]: 1.7
- Log2 Ratio vs Glc, LBA1433 Dihydroxyacetone kinase [42]: 3.7
- Log2 Ratio vs Glc, LBA1434 Dihydroxyacetone kinase [42]: 4.5
- Log2 Ratio vs Glc, LBA1435 Hypothetical protein [42]: 5
- Log2 Ratio vs Glc, LBA1436 Glycerol uptake facilitator protein [42]: 4.9
- Log2 Ratio vs Glc, LBA1632 NAD-dependent aldehyde dehydrogenase [42]: 3.3
- Log2 Ratio vs Glc, LBA1684 PTS EIIA [42]: 2.9
- Log2 Ratio vs Glc, LBA1689 Maltose-6′-phosphate glucosidase (GH4) [42]: 1.8
- Log2 Ratio vs Glc, LBA1701 Melibiose operon regulatory protein [42]: 4.9
- Log2 Ratio vs Glc, LBA1709 Mucus binding protein precursor [42]: 3.6
- Log2 Ratio vs Glc, LBA1797 Hypothetical protein [42]: 2.6
- Log2 Ratio vs Glc, LBA1812 α-Glucosidase II (GH31) [42]: 2.8
- Log2 Ratio vs Glc, LBA1869 β-Phosphoglucomutase [42]: 4.2
- Log2 Ratio vs Glc, LBA1871 Neopullulanase (GH13) [42]: 2.1
- Log2 Ratio vs Glc, LBA1873 Acetate kinase [42]: 0.8
- Log2 Ratio vs Glc, LBA1974 Pyruvate oxidase [42]: 3.6
